Molecular target: T1, Human recombinant HDAC6 (Homo sapiens, UniProt Q9UBN7)
T1 sequence (Q9UBN7 1-1215): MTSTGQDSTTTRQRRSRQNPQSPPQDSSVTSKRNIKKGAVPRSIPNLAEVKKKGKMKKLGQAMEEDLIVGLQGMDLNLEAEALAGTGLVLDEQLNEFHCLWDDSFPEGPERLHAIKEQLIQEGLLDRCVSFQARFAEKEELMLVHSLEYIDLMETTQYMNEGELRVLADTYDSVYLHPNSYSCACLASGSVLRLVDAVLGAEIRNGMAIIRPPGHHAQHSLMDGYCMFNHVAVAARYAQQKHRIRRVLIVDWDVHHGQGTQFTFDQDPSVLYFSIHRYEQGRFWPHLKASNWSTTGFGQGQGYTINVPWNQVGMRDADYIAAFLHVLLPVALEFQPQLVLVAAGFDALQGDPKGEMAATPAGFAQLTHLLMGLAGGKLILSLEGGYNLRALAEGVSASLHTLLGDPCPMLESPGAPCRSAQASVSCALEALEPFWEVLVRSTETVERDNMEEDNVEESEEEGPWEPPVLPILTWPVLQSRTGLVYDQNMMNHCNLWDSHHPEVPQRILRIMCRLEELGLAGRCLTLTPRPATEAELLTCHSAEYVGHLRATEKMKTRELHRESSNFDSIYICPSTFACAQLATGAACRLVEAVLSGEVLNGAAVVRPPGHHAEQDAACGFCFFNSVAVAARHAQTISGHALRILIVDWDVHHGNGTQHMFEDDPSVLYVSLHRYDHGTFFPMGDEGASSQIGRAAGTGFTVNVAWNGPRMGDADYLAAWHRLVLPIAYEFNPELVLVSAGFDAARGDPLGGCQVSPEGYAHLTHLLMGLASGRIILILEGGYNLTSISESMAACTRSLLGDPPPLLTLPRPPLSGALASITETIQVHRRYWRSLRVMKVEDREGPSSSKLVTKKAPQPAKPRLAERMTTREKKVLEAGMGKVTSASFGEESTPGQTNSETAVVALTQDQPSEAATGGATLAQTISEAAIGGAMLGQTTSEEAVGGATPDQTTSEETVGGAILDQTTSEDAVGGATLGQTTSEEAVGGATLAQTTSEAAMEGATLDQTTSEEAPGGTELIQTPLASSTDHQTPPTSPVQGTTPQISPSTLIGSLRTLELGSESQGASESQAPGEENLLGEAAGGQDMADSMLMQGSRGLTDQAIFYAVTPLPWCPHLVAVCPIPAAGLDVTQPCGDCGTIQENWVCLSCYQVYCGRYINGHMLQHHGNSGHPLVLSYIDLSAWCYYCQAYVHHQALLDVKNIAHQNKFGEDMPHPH
Assay: HDAC isomer assay, Fluor-de-Lys, HDAC6
Assay type: biochemical
Settings: proof of concept; FIGS. 11 and 12; read-out: EC50 against HDAC6
Protocol: The HDAC isomer (HDAC1, 3, and 6) assays were performed as follows:
Materials: Human recombinant HDAC isomer (HDAC1, HDAC3, and HDAC6); Fluor-de-Lys HDAC substrates; 360 nm excitation 460 nm emission Plate Reader; Disposable pipettes; Pipet-aid; Pipette tips; Micro-pipetter; DMSO; Sterile micro-tubes and conical tubes; and Micro-centrifuge.
Test compounds and control preparation: All test compounds' stock solutions were made in 100% DMSO. Test compound dilutions were made in HDAC Assay buffer with a final concentration of DMSO less than or equal to 1%. Vehicle control was HDAC Assay buffer with 1% DMSO.
The reagents for the assay were prepared as follows:
1. All kit components were defrosted and these, and all dilutions described below, were kept on ice until use.
2. A sufficient amount of HDAC source diluted in Assay Buffer (BML-KI143) was prepared to provide for the assays that were performed (# of wells×15 μl). A 30-fold dilution of the HeLa Extract means that 15p L contains 0.5 μl of the undiluted Extract, an appropriate amount to use per well.
3. Dilution(s) of SAHA and/or Test Inhibitors were prepared in Assay Buffer (BML-KI143). Since 10 μl were used per well, and since the final volume of the HDAC reaction was 50p, these inhibitor dilutions were 5× their final concentration.
4. Dilution(s) of the Fluor de Lys® Substrate (BML-KI104; 50 mM) were prepared in Assay Buffer (BML-KI143) that were 2× the desired final concentration(s). For inhibitor screening, substrate concentrations at or below the Km are recommended. Twenty-five μL were used per well. […] Rapid mixing and dilution into room temperature buffer helped to prevent precipitation at high substrate concentration.
5. Shortly before use (<30 min.), sufficient Fluor de Lys® Developer was prepared for the assays to be performed (50 μl per well). First, the Fluor de Lys® Developer Concentrate was diluted 20-fold (e.g. 50 μl plus 950 μl Assay Buffer) in cold Assay Buffer (BML-K1143). […] The addition of SAHA to the Developer insures that HDAC activity stops when the Developer is added. The Developer was kept on ice until use.
1. Assay buffer, diluted trichostatin A or test inhibitor was added to appropriate wells of the microtiter plate.
2. Diluted HeLa extract or other HDAC sample was added to all wells except those that are to be “No Enzyme Controls.”
3. Diluted Fluor de Lys® Substrate and the samples in the microtiter plate were allowed to equilibrate to assay temperature (e.g. 25 or 37° C.).
4. HDAC reactions were initiated by adding diluted substrate (25 μl) to each well and mixing thoroughly.
5. HDAC reactions were allowed to proceed for desired length of time and then stop them by addition of Fluor de Lys® Developer (50 μl). The plates were incubated at room temperature (25° C.) for 10-15 min.
6. Samples were read in a microtiter-plate reading fluorimeter capable of excitation at a wavelength in the range 350-380 nm and detection of emitted light in the range 440-460 nm.

Row | SMILES | EC50 [µM]
1 | O=C1CCCC(=O)N1 [glutaramide, glutarimide, reference compound] | > 25
2 | Nc1cccc2c1CN(C1CCC(=O)NC1=O)C2=O (centres unmarked) [lenalidomide, reference compound] | > 25

— patent publication US11584733B2, “Selective histone deacetylase inhibitors for the treatment of human disease” (Shuttle Pharmaceuticals, Inc., priority 2017, dated 2023)
